In series [1] the target is T1, Phosphodiesterase 1 (Homo sapiens, UniProt P54750+Q01064+Q14123). Put plainly: Inhibition of human PDE1 partially purified from THP-1 cells. It is filed as cell-free.
Series [2] concerns the target cGMP-specific 3',5'-cyclic phosphodiesterase (Homo sapiens, UniProt O76074). Put plainly: Inhibition of human PDE5 partially purified from MCF-7 cells. It is filed as cell-free, MCF7.
The target of series [3] is cGMP-inhibited 3',5'-cyclic phosphodiesterase 3A (Homo sapiens, UniProt Q14432). Put plainly: Inhibition of human PDE3A3 expressed in baculovirus infected Sf9 cells.
Series [4] addresses 3',5'-cyclic-AMP phosphodiesterase 4D (Homo sapiens, UniProt Q08499). Put plainly: Inhibition of human PDE4D3 expressed in baculovirus infected Sf9 cells.
In series [5] the target is High affinity 3',5'-cyclic-AMP phosphodiesterase 7A (Homo sapiens, UniProt Q13946). Put plainly: Inhibition of human PDE7A1 expressed in baculovirus infected Sf9 cells.
The nature of series [6]: Solubility in HCl/KCl buffer at pH 1. It is filed as physicochemical.
Series [7] in a line: Solubility in Na2HPO4/NaH2PO4 buffer at pH 7.4. It is filed as physicochemical.
A short description of series [8]: Clearance in rats when administered at a dose of 0.5 mg/kg i.v. It counts as ADME, organism-based. Also on record: dose 0.5 mg/kg, route intravenous. The settings on record: rat, in vivo, iv.
Series [9] is described as follows: Half-life in rats after peroral administration of 2.5 mg/kg. It is filed as ADME, organism-based. The conditions noted are these: rat, in vivo, po. The arrangement: dose 2.5 mg/kg, route oral.
The nature of series [10]: Oral bioavailability in rat (dose 2.5 mg/kg). The conditions noted are these: in vivo. It is filed as ADME, organism-based.
The nature of series [11]: Volume of distribution in rats when administered at a dose of 0.5 mg/kg i.v. The settings on record: rat, in vivo, iv. The arrangement: dose 0.5 mg/kg, route intravenous. It is filed as ADME, organism-based.
Series [12] addresses T1, Phosphodiesterase 1. Put plainly: Inhibition of human PDE1 expressed in baculovirus infected Sf9 cells.

Experimental findings from ChEMBL document CHEMBL1137828, “Spiroquinazolinones as novel, potent, and selective PDE7 inhibitors. Part 2: Optimization of 5,8-disubstituted derivatives” (Bioorg Med Chem Lett, 2004) are described below.

≈ marks a conversion by molar mass, not a printed value.

Chain of 3',5'-cyclic-AMP phosphodiesterase 4D (Q08499 whole entry): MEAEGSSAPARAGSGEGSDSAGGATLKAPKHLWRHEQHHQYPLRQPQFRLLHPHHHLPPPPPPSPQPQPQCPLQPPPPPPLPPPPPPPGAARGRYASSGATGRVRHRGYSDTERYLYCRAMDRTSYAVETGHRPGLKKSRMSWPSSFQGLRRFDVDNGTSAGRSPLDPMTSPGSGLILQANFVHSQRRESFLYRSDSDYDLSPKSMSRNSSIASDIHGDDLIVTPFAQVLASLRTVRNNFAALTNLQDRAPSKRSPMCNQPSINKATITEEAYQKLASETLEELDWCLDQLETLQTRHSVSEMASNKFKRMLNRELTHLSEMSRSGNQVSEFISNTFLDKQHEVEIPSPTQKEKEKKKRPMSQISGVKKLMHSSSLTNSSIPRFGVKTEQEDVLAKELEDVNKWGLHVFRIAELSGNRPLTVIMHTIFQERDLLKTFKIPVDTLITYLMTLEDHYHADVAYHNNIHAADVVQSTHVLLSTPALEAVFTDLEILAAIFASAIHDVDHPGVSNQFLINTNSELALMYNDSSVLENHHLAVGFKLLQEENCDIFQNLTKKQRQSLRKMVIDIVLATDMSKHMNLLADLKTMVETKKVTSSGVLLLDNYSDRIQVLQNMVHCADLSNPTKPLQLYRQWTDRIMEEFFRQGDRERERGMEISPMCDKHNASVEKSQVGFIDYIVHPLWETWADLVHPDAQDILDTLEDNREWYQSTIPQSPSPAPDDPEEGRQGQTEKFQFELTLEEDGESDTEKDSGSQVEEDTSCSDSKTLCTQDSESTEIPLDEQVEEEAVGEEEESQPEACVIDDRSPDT
Chain of High affinity 3',5'-cyclic-AMP phosphodiesterase 7A (Q13946 whole entry): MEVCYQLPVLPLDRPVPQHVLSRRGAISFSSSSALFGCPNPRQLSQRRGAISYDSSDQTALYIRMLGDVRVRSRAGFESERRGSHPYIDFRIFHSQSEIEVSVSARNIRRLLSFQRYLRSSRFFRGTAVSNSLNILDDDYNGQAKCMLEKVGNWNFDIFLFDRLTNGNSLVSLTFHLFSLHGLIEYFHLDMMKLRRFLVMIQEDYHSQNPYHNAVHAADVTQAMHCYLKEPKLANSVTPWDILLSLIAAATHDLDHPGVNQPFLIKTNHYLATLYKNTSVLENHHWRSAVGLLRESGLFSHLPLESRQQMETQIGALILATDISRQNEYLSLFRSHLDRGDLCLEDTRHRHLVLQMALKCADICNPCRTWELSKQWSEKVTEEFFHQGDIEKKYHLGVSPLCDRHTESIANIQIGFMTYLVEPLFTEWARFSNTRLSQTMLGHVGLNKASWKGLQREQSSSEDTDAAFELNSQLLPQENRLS
Chain of cGMP-inhibited 3',5'-cyclic phosphodiesterase 3A (Q14432 whole entry): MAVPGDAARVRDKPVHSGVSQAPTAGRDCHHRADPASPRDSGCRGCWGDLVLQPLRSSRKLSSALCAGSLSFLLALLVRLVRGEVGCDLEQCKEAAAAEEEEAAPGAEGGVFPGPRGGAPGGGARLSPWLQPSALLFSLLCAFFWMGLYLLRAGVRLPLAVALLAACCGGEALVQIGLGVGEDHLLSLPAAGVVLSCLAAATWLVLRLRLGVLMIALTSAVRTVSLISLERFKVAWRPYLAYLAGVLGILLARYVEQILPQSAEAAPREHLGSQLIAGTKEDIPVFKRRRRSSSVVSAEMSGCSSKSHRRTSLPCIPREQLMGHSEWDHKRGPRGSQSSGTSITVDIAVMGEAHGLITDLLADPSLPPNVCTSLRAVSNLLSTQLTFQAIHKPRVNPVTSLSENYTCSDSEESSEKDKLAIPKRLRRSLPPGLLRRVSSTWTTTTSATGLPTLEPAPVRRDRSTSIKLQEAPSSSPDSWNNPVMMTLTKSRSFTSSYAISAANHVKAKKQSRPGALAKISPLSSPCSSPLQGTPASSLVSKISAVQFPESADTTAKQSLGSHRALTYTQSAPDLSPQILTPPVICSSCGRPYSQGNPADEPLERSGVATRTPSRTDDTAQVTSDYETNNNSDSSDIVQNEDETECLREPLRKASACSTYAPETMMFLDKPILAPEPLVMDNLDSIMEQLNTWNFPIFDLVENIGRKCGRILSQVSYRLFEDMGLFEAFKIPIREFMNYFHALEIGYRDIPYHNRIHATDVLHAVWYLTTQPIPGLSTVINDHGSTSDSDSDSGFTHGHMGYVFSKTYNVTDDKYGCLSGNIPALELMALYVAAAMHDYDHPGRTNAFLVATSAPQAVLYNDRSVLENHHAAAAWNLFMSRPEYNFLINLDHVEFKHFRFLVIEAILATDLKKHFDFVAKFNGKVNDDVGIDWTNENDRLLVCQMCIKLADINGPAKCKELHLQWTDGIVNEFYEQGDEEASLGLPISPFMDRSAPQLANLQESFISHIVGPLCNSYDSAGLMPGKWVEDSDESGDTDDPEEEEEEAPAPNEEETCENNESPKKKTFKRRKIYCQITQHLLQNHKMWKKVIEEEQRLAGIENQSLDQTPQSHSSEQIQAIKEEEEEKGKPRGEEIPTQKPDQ

One may read the IC50 as the point on the concentration scale where inhibition reaches its midpoint. The solubility is the concentration that dissolves in the medium under given conditions. The low end stands for little dissolved substance, the high end for much dissolved substance. `O=C1Nc2c(Cl)ccc(OCc3noc(O)n3)c2C2(CCCCC2)N1`: the IC50 against Phosphodiesterase 1 [1] is 0.61 µM; in series [2] it was greater than 101 µM; in [3], 21.9 µM; in [4], 0.82 µM; in [5], 0.0035 µM. Further, the figures for the solubility in series [6] and in [7] were less than 1 µg/mL and 113 µg/mL (≈ 310 µM), respectively.

In [5], `O=C1Nc2c(Cl)ccc(O)c2C2(CCCCC2)N1` gave an IC50 of 0.01 µM.

One may read the clearance as a measure of how efficiently the substance is removed, as volume per time. A low value points to a low capacity for elimination. Usually half-life stands for the time in which the quantity being followed falls by half. As a reminder, the bioavailability is the share of a dose that reaches the circulation, judged against a reference dose that is usually intravenous. As usually defined, the Vd is the apparent volume that relates the amount in the body to the concentration in plasma or blood. A higher Vd goes with wide distribution into tissue. In the case of `O=C(O)COc1ccc(Cl)c2c1C1(CCCCC1)NC(=O)N2`, the IC50 against Phosphodiesterase 1 [1] is 4.76 µM; in [2], greater than 101 µM; in [3], greater than 68 µM; in series [4], 15 µM; in series [5], 0.04 µM. Moreover, the clearance in [8] came out at 39.4 mL/min/kg. Besides, the solubility is 1 µg/mL (≈ 3.08 µM) in series [6] and greater than 500 µg/mL in series [7]. The half-life in series [9] was 1.4 h. Moreover, the bioavailability in series [10] was 21%. In addition, in series [11], the Vd worked out at 1.04 L/kg.

On to `O=C1Nc2c(Cl)ccc(OCCO)c2C2(CCCCC2)N1`, for which the IC50 was 10.5 µM against Phosphodiesterase 1 [1]; greater than 91 µM in [2]; greater than 73 µM in series [3]; 12.2 µM in [4]; 0.05 µM in series [5]. For the same compound, in [8], the clearance amounted to 33.6 mL/min/kg. For the same compound, the solubility in series [6] was 11 µg/mL (≈ 35.4 µM); in series [7] it was 18 µg/mL (≈ 57.9 µM). Further, the half-life in series [9] was 1.5 h. The compound also yielded a bioavailability in [10] of 27%. Besides, the Vd in [11] was 1.41 L/kg.

Regarding `CN(C)CC(O)COc1ccc(Cl)c2c1C1(CCCCC1)NC(=O)N2` (stereo unspecified), the IC50 was greater than 101 µM at Phosphodiesterase 1 [1]; greater than 101 µM in series [2]; greater than 101 µM in [3]; 55 µM in series [4]; 0.4 µM in series [5]. For the same compound, the solubility was greater than 500 µg/mL in series [6] and 137 µg/mL (≈ 372 µM) in series [7].

`N#CCOc1ccc(Cl)c2c1C1(CCCCC1)NC(=O)N2`: the IC50 against Phosphodiesterase 1 [1] was 5.86 µM; in series [2] it was greater than 101 µM; in [3], 94 µM; in series [4], 1.7 µM; in [5] it was 0.02 µM. Further, the solubility in series [6] and in series [7] was 4 µg/mL (≈ 13.1 µM) each time.

Regarding `NCCOCCOc1ccc(Cl)c2c1C1(CCCCC1)NC(=O)N2`, the IC50 against Phosphodiesterase 1 [1] was greater than 101 µM; in series [2], greater than 101 µM; in series [3], greater than 101 µM; in [4], 99 µM; in [5] it was 1.62 µM. The solubility in series [6] and in series [7] was greater than 500 µg/mL in each case.

Consider `O=C1Nc2c(Cl)ccc(OCc3nn[nH]n3)c2C2(CCCCC2)N1`, for which the IC50 was 0.32 µM at Phosphodiesterase 1 [12]; greater than 88 µM in series [2]; 11.8 µM in [3]; 0.32 µM in [4]; 0.004 µM in [5]. Besides, the solubility in series [6] is less than 1 µg/mL; in series [7], 345 µg/mL (≈ 989 µM).

As for `CN(C)CCOc1ccc(Cl)c2c1C1(CCCCC1)NC(=O)N2`, the IC50 against Phosphodiesterase 1 [1] is 19 µM; in series [2] it was 74 µM; in [3], greater than 101 µM; in [4], 3.28 µM; in series [5] it was 0.15 µM. For the same compound, the solubility in series [6] is greater than 500 µg/mL; in series [7], 195 µg/mL (≈ 577 µM).

On to `CNCCOc1ccc(Cl)c2c1C1(CCCCC1)NC(=O)N2`, for which the IC50 was 72.4 µM against Phosphodiesterase 1 [1]; greater than 101 µM in series [2]; greater than 101 µM in series [3]; 53.2 µM in series [4]; 0.96 µM in series [5]. For the same compound, the solubility in series [6] and in series [7] was greater than 500 µg/mL in each case.

In series [5], `COc1ccc(Cl)c2c1C1(CCCCC1)NC(=O)N2` gave an IC50 of 0.01 µM.

For the compound `CN(C)CCCOc1ccc(Cl)c2c1C1(CCCCC1)NC(=O)N2`, the IC50 against Phosphodiesterase 1 [1] was greater than 101 µM; in [2], 98 µM; in series [3], greater than 101 µM; in series [4] it was 23.7 µM; in series [5], 1.24 µM.

With `NCCOc1ccc(Cl)c2c1C1(CCCCC1)NC(=O)N2`, the IC50 against Phosphodiesterase 1 [1] was 33 µM; in series [2], 73.2 µM; in series [3], greater than 101 µM; in [4], 10.5 µM; in series [5], 1.04 µM. Besides, the solubility in series [6] was greater than 500 µg/mL; in [7], 190 µg/mL (≈ 613 µM).

For `O=C1Nc2c(Cl)cccc2C2(CCCCC2)N1`, the IC50 in series [5] stood at 0.17 µM.

Take `O=C1Nc2c(Cl)ccc(OCCN3CCOCC3)c2C2(CCCCC2)N1`: the IC50 is 29 µM against Phosphodiesterase 1 [1]; greater than 101 µM in [2]; greater than 101 µM in [3]; 7.35 µM in series [4]; 0.03 µM in [5]. The compound also showed a clearance in series [8] of 62.8 mL/min/kg. Further, the solubility in series [6] was greater than 500 µg/mL; in [7], 4 µg/mL (≈ 10.5 µM). Besides, in series [9], the half-life is 0.32 h. For the same compound, the bioavailability in [10] turned out to be 3.7%. In addition, the Vd in series [11] was determined as 1.02 L/kg.

Take `CCOC(=O)c1ccc(COc2ccc(Cl)c3c2C2(CCCCC2)NC(=O)N3)o1`: the IC50 at Phosphodiesterase 1 [1] is 2.98 µM; in series [2], 80 µM; in series [3], 78 µM; in [4] it was 1.02 µM; in series [5] it was 0.01 µM.

As for `O=C1Nc2c(Cl)ccc(OCCCS(=O)(=O)O)c2C2(CCCCC2)N1`, the IC50 against Phosphodiesterase 1 [1] was found to be 0.65 µM; in series [2] it was 60 µM; in [3] it was 12.7 µM; in series [4] it was 2.41 µM; in [5], 0.01 µM. Further, the solubility in series [6] and in [7] was greater than 500 µg/mL each time.

Take `O=C(O)CNCCOc1ccc(Cl)c2c1C1(CCCCC1)NC(=O)N2`: the IC50 against Phosphodiesterase 1 [1] is 29.7 µM; in series [2] it was greater than 101 µM; in series [3], greater than 101 µM; in [4], 14.7 µM; in [5] it was 0.04 µM. The clearance in [8] turned out to be 39.9 mL/min/kg. Besides, the values for the solubility in [6] and in series [7] were greater than 500 µg/mL and 230 µg/mL (≈ 625 µM), respectively. The half-life in [9] is 2.7 h. Also, the bioavailability in series [10] worked out at 6.5%. In series [11], the Vd was 0.47 L/kg.

Turning to `Cc1ccc(Cl)c2c1C1(CCCCC1)NC(=O)N2`, inhibition in series [5] was half-maximal at 0.1 µM (IC50).

For the compound `CNCC(O)COc1ccc(Cl)c2c1C1(CCCCC1)NC(=O)N2` (stereo unspecified), the IC50 was greater than 101 µM at Phosphodiesterase 1 [1]; greater than 101 µM in [2]; greater than 101 µM in [3]; 12 µM in [4]; 0.21 µM in [5]. Also, the solubility in [6] and in series [7] was greater than 500 µg/mL in each case.

On to `O=C1Nc2c(Cl)ccc(OCc3ccc(C(=O)O)o3)c2C2(CCCCC2)N1`, for which the IC50 was 1.6 µM against Phosphodiesterase 1 [1]; greater than 101 µM in series [2]; 10.8 µM in [3]; 1.13 µM in [4]; 0.016 µM in series [5]. The solubility in [6] was less than 1 µg/mL; in series [7], 100 µg/mL (≈ 256 µM).

With `O=C1Nc2c(Cl)ccc(Cl)c2C2(CCCCC2)N1`, the IC50 in [5] was 0.01 µM.
